From patent EP4748864A1, “POLYMERIZATION INITIATOR OR PHOTOSENSITIZER, POLYMERIZATION INITIATION COMPOSITION, AND METHOD FOR PRODUCING RESIN” (Miyoshi Oil & Fat Co., Ltd., priority 2023, dated 2025)

How the values were obtained:
Type in all cases: physicochemical
[1] = UV absorption characteristics of component (A), UV-visible spectrophotometer; settings: 100 µM chloroform solution, 10-mm quartz cell; for Maximum absorption wavelength Molar absorption coefficient: at the maximum absorption wavelength
Protocol: A 100 µM chloroform solution of each benzophenone derivative was prepared and placed in a 10-mm quartz cell. The absorption spectrum was measured using a UV-visible spectrophotometer (V-550, manufactured by JASCO Corporation).

[2] = Solubility of component (A) in monomers and solvents, visual observation; set-up: key to Solubility Butyl acrylate / Solubility Toluene: ⊚: dissolved transparently; ∘: dissolved almost transparently, but turbidity was observed; △: not dissolved; settings: for Solubility Butyl acrylate: 0.1 g in butyl acrylate (1.0 g); for Solubility Butyl acrylate / Solubility Toluene: visual; for Solubility Toluene: 0.1 g in toluene (1.0 g); for solubility in butyl acrylate and toluene, result in words: 0.1 g in butyl acrylate (1.0 g) or toluene (1.0 g)
Protocol: The components (A), A-1 to A-4 and A-9 to A-12, (0.1 g) was added to butyl acrylate (1.0 g) or toluene (1.0 g), and the resulting mixture was stirred. The appearance of the mixture was visually observed, and the solubility was evaluated as follows (Table 5).
• ⊚: dissolved transparently • ∘: dissolved almost transparently, but turbidity was observed • △: not dissolved

[3] = Heat resistance of component (A): 5% weight loss temperature by TG/DTA; settings: heating rate 10°C/min, 25°C to 550°C
Protocol: The 5% weight loss temperature of each benzophenone derivative was measured as follows. Using a simultaneous differential thermal and thermogravimetric analyzer (TG/DTA6200, manufactured by SII), heating was performed at a heating rate of 10°C/min in a measurement range of 25°C to 550°C, and the temperature at which the weight change (TG) decreased by 5% by weight was read.

Maximum absorption wavelength Wavelength [1] | Maximum absorption wavelength Molar absorption coefficient [1] | Solubility Butyl acrylate [2] | Solubility Toluene [2] | Molar absorption coefficient at 365 nm [1] | 5% weight loss temperature [3] | solubility in butyl acrylate and toluene, result in words [2] | Molecule
328 nm | 30730 L/mol/cm | ○ | ⊚ |  |  |  | Cc1cccc(Sc2ccc(C(=O)c3ccc(Sc4cccc(C)c4)cc3)cc2)c1 [A-10, 4,4'-Dithio(3-methylphenyl)benzophenone]
329 nm | 31640 L/mol/cm | ○ | ○ | 3830 L/mol/cm |  |  | Cc1ccc(Sc2ccc(C(=O)c3ccc(Sc4ccc(C)cc4C)cc3)cc2)c(C)c1 [A-11, 4,4'-Dithio(2,4-dimethylphenyl)benzophenone]
328 nm | 31590 L/mol/cm | ○ | ⊚ | 3250 L/mol/cm |  |  | Cc1ccc(C)c(Sc2ccc(C(=O)c3ccc(Sc4cc(C)ccc4C)cc3)cc2)c1 [A-12, 4,4'-Dithio(2,5-dimethylphenyl)benzophenone]

The next lines start with the molecule.

Molecule | Maximum absorption wavelength Wavelength [1] | Maximum absorption wavelength Molar absorption coefficient [1] | Solubility Butyl acrylate [2] | Solubility Toluene [2] | Molar absorption coefficient at 365 nm [1] | 5% weight loss temperature [3] | solubility in butyl acrylate and toluene, result in words [2]
Cc1cc(C(C)(C)C)ccc1Sc1ccc(C(=O)c2ccc(Sc3ccc(C(C)(C)C)cc3C)cc2)cc1 [A-9, 4,4'-Dithio(4-tert-butyl-2-methylphenyl)benzophenone] | 329 nm | 32600 L/mol/cm | ⊚ | ⊚ | 3870 L/mol/cm |  | 
CSc1ccc(C(=O)c2ccc(SC)cc2)cc1 [A-6, 4,4'-Bis(methylthio)benzophenone, reference compound] | 323 nm | 25100 L/mol/cm |  |  | 1100 L/mol/cm | 239 °C | 
CC(C)(C)c1ccc(Sc2ccc(C(=O)c3ccc(Sc4ccc(C(C)(C)C)cc4)cc3)cc2)cc1 [A-4, 4,4'-Bis(p-tert-butylphenylthio)benzophenone] | 328 nm | 31120 L/mol/cm | ○ | ⊚ |  |  | good solubility
4,4'-Ditolylthiobenzophenone [A-2] | 327 nm | 31500 L/mol/cm | Δ | ○ |  |  | 
Cc1ccc(Sc2ccc(C(=O)c3ccccc3)cc2)cc1 [A-5, 4-(p-Tolylthio)benzophenone, reference compound] | 316 nm | 13200 L/mol/cm |  |  | 700 L/mol/cm | 235 °C | 
CCCCCCCCSc1ccc(C(=O)c2ccc(SCCCCCCCC)cc2)cc1 [A-7, 4,4'-Bis(octylthio)benzophenone, reference compound] | 326 nm | 24800 L/mol/cm |  |  | 2000 L/mol/cm | 282 °C | 
CC(C)c1ccc(Sc2ccc(C(=O)c3ccc(Sc4ccc(C(C)C)cc4)cc3)cc2)cc1 [A-3, 4,4'-Bis(p-isopropylphenylthio)benzophenone] | 327 nm | 31440 L/mol/cm | ⊚ | ⊚ |  |  | good solubility
S=C(c1ccc(-c2ccccc2)cc1)c1ccc(-c2ccccc2)cc1 [A-1, 4,4'-Diphenylthiobenzophenone] | 326 nm | 32880 L/mol/cm | Δ | Δ | 3900 L/mol/cm | 314 °C | 
